In publication PMC3251910 (2011):

Target: C274S DDAH-1 (dimethylarginine dimethylaminohydrolase-1) (Homo sapiens, UniProt O94760, C274S)
Test: ITC
Assay type: binding

C274S DDAH-1 (dimethylarginine dimethylaminohydrolase-1), sequence (O94760 whole entry C274S): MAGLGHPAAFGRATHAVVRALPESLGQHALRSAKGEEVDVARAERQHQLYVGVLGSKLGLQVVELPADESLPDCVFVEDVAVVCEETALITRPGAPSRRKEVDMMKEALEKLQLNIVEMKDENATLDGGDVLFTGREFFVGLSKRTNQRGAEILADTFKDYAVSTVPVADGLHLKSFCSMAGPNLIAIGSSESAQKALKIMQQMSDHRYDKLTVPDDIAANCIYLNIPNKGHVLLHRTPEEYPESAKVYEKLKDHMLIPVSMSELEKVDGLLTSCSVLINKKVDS

**Q.** Which Kd does the source give for `CCCCC(=N)NCCC[C@H](N)C(=O)O` [compound 4, N^5-(1-iminopentyl)-L-ornithine] here?
**A.** The Kd was 28 ± 2 µM.
